pIC50: −log10 of the molar value. Like-named read-outs stand apart in the source and are kept apart here.
Target: T1, full-length beta-Catenin (Uniprot ID P35222) (Homo sapiens, UniProt P35222)
T1 construct: 10 nM full-length beta-Catenin (Uniprot ID P35222)
T1 sequence (P35222 1-781): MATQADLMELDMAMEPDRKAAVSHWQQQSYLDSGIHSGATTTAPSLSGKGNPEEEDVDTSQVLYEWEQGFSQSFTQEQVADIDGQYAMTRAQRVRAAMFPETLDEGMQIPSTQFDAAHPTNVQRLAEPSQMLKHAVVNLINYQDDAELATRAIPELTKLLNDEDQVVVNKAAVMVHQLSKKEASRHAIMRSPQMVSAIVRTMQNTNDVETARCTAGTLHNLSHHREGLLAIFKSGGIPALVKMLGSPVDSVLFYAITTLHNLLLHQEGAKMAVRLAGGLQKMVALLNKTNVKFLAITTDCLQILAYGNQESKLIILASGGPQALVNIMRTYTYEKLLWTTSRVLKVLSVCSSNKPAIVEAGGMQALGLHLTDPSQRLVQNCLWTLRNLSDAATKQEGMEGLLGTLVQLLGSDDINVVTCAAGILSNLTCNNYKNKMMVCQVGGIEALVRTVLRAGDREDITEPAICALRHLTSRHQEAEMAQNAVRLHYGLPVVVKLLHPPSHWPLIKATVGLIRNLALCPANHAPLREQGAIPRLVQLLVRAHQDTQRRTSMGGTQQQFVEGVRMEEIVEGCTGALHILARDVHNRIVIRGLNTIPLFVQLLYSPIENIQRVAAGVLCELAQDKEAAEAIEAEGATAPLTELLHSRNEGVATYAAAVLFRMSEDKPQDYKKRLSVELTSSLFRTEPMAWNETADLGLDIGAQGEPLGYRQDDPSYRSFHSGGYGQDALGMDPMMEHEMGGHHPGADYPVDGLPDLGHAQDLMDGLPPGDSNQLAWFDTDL
Test: Fluorescence polarization IC50 (beta-catenin / 5FAM-TCF4 10-53 competition)
Format: binding
Settings: fluorescence polarization

Row | pIC50 (read-out: beta-Catenin FP IC50) | pIC50 (beta-catenin, read-out: FP EC50) | SMILES
1 | 7.27 |  | CC(=O)N1CCC[C@]12CCCCCCC1(CCCCCCCCOC(=O)N3CC[C@@](C(=O)N[C@@H](Cc4ccsc4)C(=O)N[C@@H](Cc4csc5ccccc45)C(=O)N[C@@H](CCC(N)=O)C(N)=O)(C3)NC(=O)[C@H](CC(N)=O)NC(=O)[C@H](Cc3ccccc3)NC(=O)[C@H](C)NC(=O)[C@H](C)NC(=O)[C@H](CC(=O)O)NC(=O)[C@H](CC(=O)O)NC1=O)NC(=O)[C@H](CC(C)(C)C)NC(=O)[C@H](CC(=O)O)NC2=O (stereo partly drawn) [I-1987, Ac-PL3-Asp-Npg-B5-Asp-Asp-Ala-Ala-Phe-Asn-PyrS2-3Thi-BztA-Gln-NH2]
2 | 6.33 |  | CCOC(=O)C[C@@H]1NC(=O)[C@H](CC(=O)O)NC(=O)C2(CCCC=CCCCOC(=O)N3CC[C@@](C(=O)N[C@@H](Cc4ccsc4)C(=O)N[C@@H](Cc4csc5ccccc45)C(=O)N[C@@H](CCC(N)=O)C(N)=O)(C3)NC(=O)[C@H](CC(C)C)NC(=O)[C@H](Cc3ccccc3)NC(=O)[C@H](C)NC(=O)[C@H](C)NC1=O)CCCC=CC[C@]1(CCCN1C(C)=O)C(=O)N[C@@H](CC(=O)O)C(=O)N[C@@H](CC(C)(C)C)C(=O)N2 (stereo partly drawn) [I-2358, Ac-PL3-Asp-Npg-B5-Asp-[Et]AspE-Ala-Ala-Phe-Leu-PyrS2-3Thi-BztA-Gln-NH2]
3 | 7.32 |  | CC(=O)N1CCC[C@]12CC=CCCCC1(CCCC=CCCCOC(=O)N3CC[C@@](C(=O)N[C@@H](Cc4ccsc4)C(=O)N[C@@H](Cc4csc5ccccc45)C(=O)N[C@@H](Cc4c[nH]nn4)C(N)=O)(C3)NC(=O)[C@H](CC(C)C)NC(=O)[C@H](Cc3ccccc3)NC(=O)[C@H](C)NC(=O)[C@H](C)NC(=O)[C@H](CC(=O)O)NC(=O)[C@H](CC(=O)O)NC1=O)NC(=O)[C@H](CC(C)(C)C)NC(=O)[C@H](CC(=O)O)NC2=O (stereo partly drawn) [I-1498, Ac-PL3-Asp-Npg-B5-Asp-Asp-Ala-Ala-Phe-Leu-PyrS2-3Thi-BztA-4TriA-NH2]
4 | 5.99 |  | CC(=O)N1CCC[C@]12CC=CCCCC1(CCCC=CCCCOC(=O)N3CC[C@@](C(=O)N[C@@H](Cc4ccsc4)C(=O)N[C@@H](Cc4csc5ccccc45)C(=O)N[C@@H](CCC(N)=O)C(N)=O)(C3)NC(=O)[C@H](CC(N)=O)NC(=O)[C@H](Cc3ccccc3)NC(=O)[C@H](C)NC(=O)[C@H](C)NC(=O)[C@H]([C@@H](C)O)NC(=O)[C@H](CC(N)=O)NC1=O)NC(=O)[C@H](C)NC(=O)[C@H](CC(=O)O)NC2=O (stereo partly drawn) [I-2003, Ac-PL3-Asp-Ala-B5-Asn-Thr-Ala-Ala-Phe-Asn-PyrS2-3Thi-BztA-Gln-NH2]
5 |  | 5.94 | CC(=O)N1CCC[C@]12CC=CCCCC1(CCCC=CCCCOC(=O)N3CC[C@@](C(=O)N[C@@H](Cc4ccsc4)C(=O)N[C@@H](Cc4csc5ccccc45)C(=O)N[C@@H](CCC(N)=O)C(=O)O)(C3)NC(=O)[C@H](CC(N)=O)NC(=O)[C@H](CC(=O)O)NC(=O)[C@H](C)NC(=O)[C@H](C)NC(=O)[C@H](CC(=O)O)NC(=O)[C@H](CC(=O)O)NC1=O)NC(=O)[C@H](CC(C)(C)C)NC(=O)[C@H](Cc1ccccc1)NC2=O (stereo partly drawn) [I-1027, Ac-PL3-Phe-Npg-B5-Asp-Asp-Ala-Ala-Asp-Asn-PyrS2-3Thi-BztA-Gln-OH]
6 | 7.59 |  | CC(=O)N1CCC[C@]12CC=CCCCC1(CCCC=CCCCOC(=O)N3CCC(C(=O)N[C@@H](Cc4ccsc4)C(=O)N[C@@H](Cc4csc5ccccc45)C(=O)N[C@@H](CCC(N)=O)C(N)=O)(CC3)NC(=O)[C@H](CC(C)C)NC(=O)[C@H](Cc3ccccc3)NC(=O)[C@H](C)NC(=O)[C@H](C)NC(=O)[C@H](Cc3cccc(C(=O)O)c3)NC(=O)[C@H](CC(=O)O)NC1=O)NC(=O)[C@H](CC(C)(C)C)NC(=O)[C@H](CC(=O)O)NC2=O (stereo partly drawn) [I-2588, Ac-PL3-Asp-Npg-B5-Asp-3COOHF-Ala-Ala-Phe-Leu-SPip2-3Thi-BztA-Gln-NH2]

The remaining lines, values behind:

Row | SMILES | pIC50 (read-out: beta-Catenin FP IC50) | pIC50 (beta-catenin, read-out: FP EC50)
7 | CC(=O)N1CCC[C@]12CC=CCCCC1(CCCC=CCCCOC(=O)N3CC[C@@](C(=O)N[C@@H](Cc4ccsc4)C(=O)N[C@@H](Cc4csc5ccccc45)C(=O)N[C@@H](Cc4c[nH]cn4)C(N)=O)(C3)NC(=O)[C@H]([C@@H](C)O)NC(=O)[C@H](Cc3ccccc3)NC(=O)[C@H](C)NC(=O)[C@H](C)NC(=O)[C@H]([C@@H](C)O)NC(=O)[C@H](CC(N)=O)NC1=O)NC(=O)[C@H](CC(C)(C)C)NC(=O)[C@H](CC(=O)O)NC2=O (stereo partly drawn) [I-2337, Ac-PL3-Asp-Npg-B5-Asn-Thr-Ala-Ala-Phe-Thr-PyrS2-3Thi-BztA-His-NH2] | 6.51 | 
8 | CC(=O)N1CCC[C@]12CC=CCCCC1(CCCC=CCCCOC(=O)N3CC[C@@](C(=O)N[C@@H](Cc4ccsc4)C(=O)N[C@@H](Cc4csc5ccccc45)C(=O)N[C@H](C(N)=O)C(C)C)(C3)NC(=O)[C@H](CC(N)=O)NC(=O)[C@H](Cc3ccccc3)NC(=O)[C@H](C)NC(=O)C(C)(C)NC(=O)[C@H]([C@@H](C)O)NC(=O)[C@H](CC(N)=O)NC1=O)NC(=O)[C@H](CC(C)(C)C)NC(=O)[C@H](CC(=O)O)NC2=O (stereo partly drawn) [I-2480, Ac-PL3-Asp-Npg-B5-Asn-Thr-Aib-Ala-Phe-Asn-PyrS2-3Thi-BztA-Val-NH2] | 6.32 | 
9 | CC(=O)N1CCC[C@]12CC=CCCCC1(CCCC=CCCCOC(=O)N3CC[C@@](C(=O)N[C@@H](Cc4ccccc4)C(=O)N[C@@H](Cc4csc5ccccc45)C(=O)N[C@@H](CCC(N)=O)C(N)=O)(C3)NC(=O)[C@H](CC(C)C)NC(=O)[C@H](Cc3ccccc3)NC(=O)[C@H](C)NC(=O)[C@H](CCO)NC(=O)[C@H](CCC(N)=O)NC(=O)[C@H](CC(=O)O)NC1=O)NC(=O)[C@H](CC1CCCCC1)NC(=O)[C@H](CC(N)=O)NC2=O (stereo partly drawn) [I-2355, Ac-PL3-Asn-Cha-B5-Asp-Gln-Hse-Ala-Phe-Leu-PyrS2-Phe-BztA-Gln-NH2] | 6.38 | 
10 | CC(=O)N1CCC[C@H]1C(=O)N[C@]1(C)CCCC=CCCCC2(CCCC=CCCCOC(=O)N3CC[C@@](C(=O)N[C@@H](Cc4ccccc4C(F)(F)F)C(=O)N[C@@H](Cc4csc5ccccc45)C(=O)N[C@@H](CCC(N)=O)C(N)=O)(C3)NC(=O)[C@H](CC(C)C)NC(=O)[C@H](Cc3ccccc3)NC(=O)[C@H](C)NC(=O)[C@H](C)NC(=O)[C@H](Cc3cccc(C(=O)O)c3)NC(=O)[C@H](CC(=O)O)NC2=O)NC(=O)[C@H](CC(C)(C)C)NC(=O)[C@H](CC(=O)O)NC1=O (stereo partly drawn) [I-2567, Ac-Pro-R5-Asp-Npg-B5-Asp-3COOHF-Ala-Ala-Phe-Leu-PyrS2-2F3MeF-BztA-Gln-NH2] | 6.28 | 
11 | CC(=O)N1CCC[C@]12CC=CCCCC1(CCCC=CCCCOC(=O)N3CC[C@@](C(=O)N[C@@H](Cc4ccccc4)C(=O)N[C@@H](Cc4csc5ccccc45)C(=O)N[C@@H](CC(=O)N4CCOCC4)C(N)=O)(C3)NC(=O)[C@H](CC(C)C)NC(=O)[C@H](Cc3ccccc3)NC(=O)[C@H](C)NC(=O)[C@H](CCCCNC(=O)C(F)(F)F)NC(=O)[C@H](CCC(N)=O)NC(=O)[C@H](CC(=O)O)NC1=O)NC(=O)[C@H](CC1CCCCC1)NC(=O)[C@H](CC(N)=O)NC2=O (stereo partly drawn) [I-2525, Ac-PL3-Asn-Cha-B5-Asp-Gln-[CF3CO]Lys-Ala-Phe-Leu-PyrS2-Phe-BztA-MorphAsn-NH2] | 5.37 | 
12 | CC(=O)N1CCC[C@]12CC=CCCCC1(CCCC=CCCCOC(=O)N3CC[C@@](C(=O)N[C@@H](Cc4ccccc4C(F)(F)F)C(=O)N[C@@H](Cc4ccc5ccccc5c4)C(=O)N[C@@H](C)C(N)=O)(C3)NC(=O)[C@H](CC(C)C)NC(=O)[C@H](Cc3ccccc3)NC(=O)[C@H](C)NC(=O)[C@H](CCC(N)=O)NC(=O)[C@H](Cc3cccc(C(=O)O)c3)NC(=O)[C@H](CC(=O)O)NC1=O)NC(=O)[C@H](CC(C)(C)C)NC(=O)[C@H](CC(=O)O)NC2=O (stereo partly drawn) [I-2461, Ac-PL3-Asp-Npg-B5-Asp-3COOHF-Gln-Ala-Phe-Leu-PyrS2-2F3MeF-2NapA-Ala-NH2] | 7.12 | 
13 | CC(=O)N1CCC[C@]12CCCCCCC1(CCCCCCOC(=O)N3CC(C(=O)N[C@@H](Cc4ccsc4)C(=O)N[C@@H](Cc4csc5ccccc45)C(=O)N[C@@H](CCC(N)=O)C(N)=O)(C3)NC(=O)[C@H](CC(C)C)NC(=O)[C@H](Cc3ccccc3)NC(=O)[C@H](C)NC(=O)[C@H](C)NC(=O)[C@H](CC(=O)O)NC(=O)[C@H](CC(=O)O)NC1=O)NC(=O)[C@H](CC(C)(C)C)NC(=O)[C@H](CC(=O)O)NC2=O (stereo partly drawn) [I-1832, Ac-PL3-Asp-Npg-B5-Asp-Asp-Ala-Ala-Phe-Leu-Az-3Thi-BztA-Gln-NH2] | 5.95 | 
14 | CC(=O)N1CCC[C@]12CC=CCCCC1(CCCC=CCCCOC(=O)N3CC[C@@](C(=O)N[C@@H](Cc4ccccc4)C(=O)N[C@@H](Cc4csc5ccccc45)C(=O)N[C@@H](CCC(N)=O)C(N)=O)(C3)NC(=O)[C@H](CC(C)C)NC(=O)[C@H](Cc3ccccc3)NC(=O)[C@H](C)NC(=O)[C@H](CCCCNC(C)C)NC(=O)[C@H](CCC(N)=O)NC(=O)[C@H](CC(=O)O)NC1=O)NC(=O)[C@H](Cc1ccc(O)cc1)NC(=O)[C@H](CC(N)=O)NC2=O (stereo partly drawn) [I-1647, Ac-PL3-Asn-Tyr-B5-Asp-Gln-iPrLys-Ala-Phe-Leu-PyrS2-Phe-BztA-Gln-NH2] | 5.63 | 

Reference: US20240116985A1, “STAPLED PEPTIDES AND METHODS THEREOF” (priority 2020, published 2024)
